Experimental data: patent US20170190671A1, “BIS(ARYL)CATECHOL DERIVATIVES AS HERBICIDES” (E I DU PONT DE NEMOURS AND COMPANY, priority 2014, published 2017)

Key:
Format in all cases: in vivo
[1] = system: chickweed (common chickweed, Stellaria media); test: Test C postemergence; details: Stellaria media, post-emergence, Postemergence, scale 0 to 100, read-out: Plant response rating, Chickweed
Summary of the method: (§1)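 Seeded loam-sand soil (preemergence) or young potted plants of 2-18 cm (postemergence) received test chemical formulated with surfactant in a non-phytotoxic solvent. Pots were kept in the greenhouse for 13-15 days before a visual 0-100 control rating relative to controls.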

[2] = system: soybean (Glycine max); test: Test C postemergence; details: Glycine max, post-emergence, Postemergence, scale 0 to 100, read-out: Plant response rating, Soybean
Summary of the method: as §1

[3] = system: velvetleaf (Abutilon theophrasti); test: Test C postemergence; details: Abutilon theophrasti, post-emergence, Postemergence, scale 0 to 100, read-out: Plant response rating, Velvetleaf
Summary of the method: as §1

[4] = system: corn (Zea mays); test: Test C postemergence; details: Zea mays, post-emergence, 336 h, Postemergence, scale 0 to 100
Summary of the method: as §1

[5] = system: morningglory (Ipomoea coccinea); test: Test C postemergence; details: Ipomoea, post-emergence, 336 h, Postemergence, scale 0 to 100, read-out: Plant response rating, Morningglory
Summary of the method: as §1

[6] = system: johnsongrass (Sorghum halepense); test: Test C postemergence; details: Sorghum halepense, post-emergence, 336 h, Postemergence, scale 0 to 100, read-out: Plant response rating, Johnsongrass
Summary of the method: as §1

[7] = system: galium (catchweed bedstraw, Galium aparine); test: Test C postemergence; details: Galium, post-emergence, 336 h, Postemergence, scale 0 to 100, read-out: Plant response rating, Galium
Summary of the method: as §1

[8] = system: blackgrass (Alopecurus myosuroides); test: Test C postemergence; details: Alopecurus myosuroides, post-emergence, 336 h, Postemergence, scale 0 to 100, read-out: Plant response rating, Blackgrass
Summary of the method: as §1

[9] = system: giant foxtail (Setaria faberii); test: Test C postemergence; details: Setaria faberi, post-emergence, 336 h, Postemergence, scale 0 to 100, read-out: Plant response rating, Foxtail, Giant
Summary of the method: as §1

[10] = system: large (Lg) crabgrass (Digitaria sanguinalis); test: Test C postemergence; details: Digitaria sanguinalis, post-emergence, 336 h, Postemergence, scale 0 to 100, read-out: Plant response rating, Crabgrass, Large
Summary of the method: as §1

[11] = system: pigweed (Amaranthus retroflexus); test: Test C postemergence; details: Amaranthus retroflexus, post-emergence, 336 h, Postemergence, scale 0 to 100, read-out: Plant response rating, Pigweed
Summary of the method: as §1

[12] = system: lambsquarters (Chenopodium album); test: Test C postemergence; details: Chenopodium album, post-emergence, 336 h, Postemergence, scale 0 to 100, read-out: Plant response rating, Lambsquarters
Summary of the method: as §1

[13] = system: yellow nutsedge (Cyperus esculentus); test: Test C postemergence; details: Cyperus, post-emergence, 336 h, Postemergence, scale 0 to 100, read-out: Plant response rating, Nutsedge, Yellow
Summary of the method: as §1

[14] = system: barnyardgrass (Echinochloa crus-galli); test: Test C postemergence; details: Echinochloa crus-galli, post-emergence, Postemergence, scale 0 to 100, read-out: Plant response rating, Barnyardgrass
Summary of the method: as §1

[15] = system: oilseed rape (Brassica napus); test: Test C postemergence; details: Brassica napus, post-emergence, Postemergence, scale 0 to 100, read-out: Plant response rating, Oilseed Rape
Summary of the method: as §1

[16] = system: Italian ryegrass (Lolium multiflorum); test: Test C postemergence; details: Lolium multiflorum, post-emergence, 336 h, Postemergence, scale 0 to 100, read-out: Plant response rating, Ryegrass, Italian
Summary of the method: as §1

[17] = system: winter wheat (Triticum aestivum); test: Test C postemergence; details: Triticum aestivum, post-emergence, 336 h, Postemergence, scale 0 to 100, read-out: Plant response rating, Wheat
Summary of the method: as §1

[18] = system: ragweed (common ragweed, Ambrosia elatior); test: Test C postemergence; details: Ambrosia artemisiifolia, post-emergence, 336 h, Postemergence, scale 0 to 100, read-out: Plant response rating, Ragweed
Summary of the method: as §1

[19] = system: giant foxtail (Setaria faberii); test: Test C preemergence; details: Setaria faberi, pre-emergence, 336 h, preemergence, scale 0 to 100, read-out: Plant response rating, Foxtail, Giant
Summary of the method: as §1

[20] = system: large (Lg) crabgrass (Digitaria sanguinalis); test: Test C preemergence; details: Digitaria sanguinalis, pre-emergence, 336 h, preemergence, scale 0 to 100, read-out: Plant response rating, Crabgrass, Large
Summary of the method: as §1

[21] = system: oilseed rape (Brassica napus); test: Test C preemergence; details: Brassica napus, pre-emergence, preemergence, scale 0 to 100, read-out: Plant response rating, Oilseed Rape
Summary of the method: as §1

[22] = system: winter wheat (Triticum aestivum); test: Test C preemergence; details: Triticum aestivum, pre-emergence, 336 h, preemergence, scale 0 to 100, read-out: Plant response rating, Wheat
Summary of the method: as §1

## Fc1cccc(Oc2ncc(Cl)cn2)c1Oc1ncc(Br)cn1 [Compound 27, 5-bromo-2-[2-fluoro-6-[(5-chloro-2-pyrimidinyl)oxy]phenoxy]pyrimidine]
[1]; 31 g ai/ha
  pest or weed control at 31 g/ha: 45%
[1]; 62 g ai/ha
  pest or weed control at 62 g/ha: 40%
[1]; 125 g ai/ha
  pest or weed control at 125 g/ha: 70%
[1]; 250 g ai/ha
  pest or weed control at 250 g/ha: 80%
[2]; 31 g ai/ha
  plant injury at 31 g/ha: 65%
[2]; 62 g ai/ha
  plant injury at 62 g/ha: 75%
[2]; 125 g ai/ha
  plant injury at 125 g/ha: 90%
[2]; 250 g ai/ha
  plant injury at 250 g/ha: 90%
[3]; 31 g ai/ha
  pest or weed control at 31 g/ha: 15%
[3]; 62 g ai/ha
  pest or weed control at 62 g/ha: 35%
[3]; 125 g ai/ha
  pest or weed control at 125 g/ha: 65%
[3]; 250 g ai/ha
  pest or weed control at 250 g/ha: 65%
[4]; 31 g ai/ha
  Corn plant response rating (crop injury, 0 = no effect, 100 = complete kill) at 31 g/ha: 10%
[4]; 62 g ai/ha
  Corn plant response rating (crop injury, 0 = no effect, 100 = complete kill) at 62 g/ha: 15%
[4]; 125 g ai/ha
  Corn plant response rating (crop injury, 0 = no effect, 100 = complete kill) at 125 g/ha: 20%
[4]; 250 g ai/ha
  Corn plant response rating (crop injury, 0 = no effect, 100 = complete kill) at 250 g/ha: 25%
[5]; 31 g ai/ha
  pest or weed control at 31 g/ha: 65%
[5]; 62 g ai/ha
  pest or weed control at 62 g/ha: 75%
[5]; 125 g ai/ha
  pest or weed control at 125 g/ha: 70%
[5]; 250 g ai/ha
  pest or weed control at 250 g/ha: 90%
[6]; 31 g ai/ha
  pest or weed control at 31 g/ha: 0%
[6]; 62 g ai/ha
  pest or weed control at 62 g/ha: 5%
[6]; 125 g ai/ha
  pest or weed control at 125 g/ha: 5%
[6]; 250 g ai/ha
  pest or weed control at 250 g/ha: 10%
[7]; 31 g ai/ha
  pest or weed control at 31 g/ha: 70%
[7]; 62 g ai/ha
  pest or weed control at 62 g/ha: 90%
[7]; 125 g ai/ha
  pest or weed control at 125 g/ha: 95%
[7]; 250 g ai/ha
  pest or weed control at 250 g/ha: 95%
[8]; 31 g ai/ha
  pest or weed control at 31 g/ha: 5%
[8]; 62 g ai/ha
  pest or weed control at 62 g/ha: 5%
[8]; 125 g ai/ha
  pest or weed control at 125 g/ha: 5%
[8]; 250 g ai/ha
  pest or weed control at 250 g/ha: 5%
[9]; 31 g ai/ha
  pest or weed control at 31 g/ha: 0%
[9]; 62 g ai/ha
  pest or weed control at 62 g/ha: 5%
[9]; 125 g ai/ha
  pest or weed control at 125 g/ha: 5%
[9]; 250 g ai/ha
  pest or weed control at 250 g/ha: 10%
[10]; 31 g ai/ha
  pest or weed control at 31 g/ha: 5%
[10]; 62 g ai/ha
  pest or weed control at 62 g/ha: 5%
[10]; 125 g ai/ha
  pest or weed control at 125 g/ha: 10%
[10]; 250 g ai/ha
  pest or weed control at 250 g/ha: 20%
[11]; 31 g ai/ha
  pest or weed control at 31 g/ha: 85%
[11]; 62 g ai/ha
  pest or weed control at 62 g/ha: 90%
[11]; 125 g ai/ha
  pest or weed control at 125 g/ha: 95%
[11]; 250 g ai/ha
  pest or weed control at 250 g/ha: 98%
[12]; 31 g ai/ha
  pest or weed control at 31 g/ha: 55%
[12]; 62 g ai/ha
  pest or weed control at 62 g/ha: 65%
[12]; 125 g ai/ha
  pest or weed control at 125 g/ha: 80%
[12]; 250 g ai/ha
  pest or weed control at 250 g/ha: 95%
[13]; 31 g ai/ha
  pest or weed control at 31 g/ha: 0%
[13]; 62 g ai/ha
  pest or weed control at 62 g/ha: 5%
[13]; 125 g ai/ha
  pest or weed control at 125 g/ha: 10%
[13]; 250 g ai/ha
  pest or weed control at 250 g/ha: 10%
[14]; 31 g ai/ha
  pest or weed control at 31 g/ha: 5%
[14]; 62 g ai/ha
  pest or weed control at 62 g/ha: 5%
[14]; 125 g ai/ha
  pest or weed control at 125 g/ha: 5%
[14]; 250 g ai/ha
  pest or weed control at 250 g/ha: 5%
[15]; 31 g ai/ha
  plant injury at 31 g/ha: 30%
[15]; 62 g ai/ha
  plant injury at 62 g/ha: 50%
[15]; 125 g ai/ha
  plant injury at 125 g/ha: 55%
[15]; 250 g ai/ha
  plant injury at 250 g/ha: 60%
[16]; 31 g ai/ha
  pest or weed control at 31 g/ha: 0%
[16]; 62 g ai/ha
  pest or weed control at 62 g/ha: 0%
[16]; 125 g ai/ha
  pest or weed control at 125 g/ha: 5%
[16]; 250 g ai/ha
  pest or weed control at 250 g/ha: 5%
[17]; 31 g ai/ha
  plant injury at 31 g/ha: 0%
[17]; 62 g ai/ha
  plant injury at 62 g/ha: 0%
[17]; 125 g ai/ha
  plant injury at 125 g/ha: 0%
[17]; 250 g ai/ha
  plant injury at 250 g/ha: 0%
[18]; 31 g ai/ha
  pest or weed control at 31 g/ha: 15%
[18]; 62 g ai/ha
  pest or weed control at 62 g/ha: 35%
[18]; 125 g ai/ha
  pest or weed control at 125 g/ha: 60%
[18]; 250 g ai/ha
  pest or weed control at 250 g/ha: 80%
[19]; 31 g ai/ha
  pest or weed control at 31 g/ha: 80%
[19]; 62 g ai/ha
  pest or weed control at 62 g/ha: 100%
[19]; 125 g ai/ha
  pest or weed control at 125 g/ha: 100%
[20]; 31 g ai/ha
  pest or weed control at 31 g/ha: 98%
[20]; 62 g ai/ha
  pest or weed control at 62 g/ha: 98%
[20]; 125 g ai/ha
  pest or weed control at 125 g/ha: 100%
[21]; 31 g ai/ha
  plant injury at 31 g/ha: 85%
[21]; 62 g ai/ha
  plant injury at 62 g/ha: 100%
[21]; 125 g ai/ha
  plant injury at 125 g/ha: 100%
[21]; 250 g ai/ha
  plant injury at 250 g/ha: 100%
[22]; 31 g ai/ha
  plant injury at 31 g/ha: 0%
[22]; 62 g ai/ha
  plant injury at 62 g/ha: 5%
[22]; 125 g ai/ha
  plant injury at 125 g/ha: 40%
[22]; 250 g ai/ha
  plant injury at 250 g/ha: 85%
